Results taken from patent US11452781B2, “Method of preventing and treating type 1 diabetes, allograft rejection and lung fibrosis (by targeting the ATP/P2X7R axis)” (CHILDREN'S MEDICAL CENTER CORPORATION, priority 2013, dated 2022).
Entries after “also recorded” stand apart in the source; their conditions may differ.

What was measured:
[1] = system: C57BL/6 mice transplanted with BALB/c hearts; type: in vivo, mouse; parameters: long-term cardiac transplant survival (>100 days), share of recipients: dose or concentration left out as unconfirmed; conditions: oATP i.p. daily for 14 days
Method: The effect of P2X7R targeting in preventing cardiac transplant rejection was tested using the P2X7R inhibitor oATP.

[2] = system: splenocytes of cardiac-transplanted mice; assay: Immune profiling of cardiac-transplanted mice (ELISPOT with BALB/c irradiated splenocytes, flow cytometry); type: in vivo, mouse
Method: To evaluate the effect of P2X7R targeting on the immune system of cardiac-transplanted mice, splenocytes were harvested at days 7 and 100 post-transplantation and were challenged with BALB/c irradiated splenocytes in an ELISPOT assay.
The effect of P2X7R targeting in preventing cardiac transplant rejection was tested by using the P2X7R inhibitor oATP. Untreated C57BL/6 mice transplanted with BALB/c hearts (fully mismatched) invariably rejected grafts within 7 days (mean survival time of 7 days). P2X7R targeting with the use of the short-term treatment of oATP ([…] oATP intraperitoneally daily for 14 days) induced long-term cardiac transplant survival (>100 days) in 80% of recipients. To evaluate the effect of P2X7R targeting on the immune system of cardiac-transplanted mice, splenocytes were harvested at days 7 and 100 posttransplantation and were challenged with BALB/c irradiated splenocytes in an enzyme-linked immunosorbent spot (ELISPOT) assay. […] The percentages of CD4+ Teffs and CD8+ Teffs were reduced by in vivo short-term P2X7R targeting in mice at days 7 and 100 posttransplantation in comparison with untreated mice.
mice adoptively transferred with naïve C57BL/6 splenocytes, and no protection was observed when splenocytes obtained from mice with long-term graft function were coadoptively transferred with naïve splenocytes. Conversely, prolonged graft survival >50 days was observed when splenocytes obtained from cardiac-transplanted mice with long-term graft function were adoptively transferred. […] The immunocompetence of treated mice at day 100 after transplantation was tested.

[3] = Phosphorylation of T-cell signaling molecules in activated CD4+ T cells (Luminex/Milliplex, Western blot); type: cell-based, mouse
Method: (§1) 60 minutes after anti-CD3-Ig and anti-CD28-Ig mediated activation, cells were lysed and the phosphorylation status of CREB, Erk, Akt, JNK, p38, p70 S6 Kinase, STAT3, and STAT5A/B was assessed using the Millipore Milliplex Cell Signaling Assay. […] Data were confirmed by western blot (FIG. 6D).
(§2) Several key components of T-cell receptor signaling involved in the alloimmune response were examined, and the phosphorylation kinetics following in vitro anti-CD3-Ig/anti-CD28-Ig-mediated CD4+ T-cell activation was evaluated by using the Luminex assay. […] The inventors first confirmed that Colivelin (Col) was able to restore the activation-induced phosphorylation of STAT3 in a dose-dependent manner in oATP-treated CD4+ T cells by Western blotting. […] The effect of oATP and Colivelin on STAT3 phosphorylation and T-cell function was also evaluated following cardiac transplantation.

[4] = system: STAT3; assay: as above; type: cell-based, mouse; conditions: 60 minutes after activation
Method: as §1, §2

[5] = system: STAT3; assay: STAT3 phosphorylation in CD4+ T cells of cardiac-transplanted mice (Western blot); type: in vivo, mouse; conditions: 7 days after transplantation
Method: as §2

[6] = system: naïve Th0 cells; assay: Th1/Th17 generation and differentiation assay; type: cell-based, mouse; conditions: 100 μM oATP
Method: Naïve Th0 cells were differentiated into Th1 or Th17 cells, and IFN-γ^+ and IL-17^+ cells were quantified by flow cytometry. Addition of 100 μM oATP inhibited the conversion of naïve Th0 cells into Th1 (FIGS. 6A-6B) and Th17 cells (FIGS. 6C-6D).
To address the mechanisms underlying P2X7R targeting mediated inhibition of cardiac transplant rejection, the inventors analyzed the effect of P2X7R targeting on T-cell activation and Th1/Th17 differentiation in vitro. […] The effect of in vitro P2X7R targeting with oATP during CD4+ T-cell activation was tested. […] Second, in a T-cell proliferation assay, carboxyfluorescein diacetate succinimidyl ester-labeled naïve CD4+ T cells were stimulated for 96 hours with 0.5 μg/mL anti-CD3-Ig and anti-CD28-Ig, and treatment with 100 μM oATP diminished CD4+ T cell proliferation in comparison with controls. […] The inventors next tested the effect of in vitro P2X7R targeting during a Th1/Th17 generation and differentiation assay. […] P2X7R targeting with oATP inhibited Th0 conversion into both Th1 and Th17, as assessed by the percentage of IFN-γ+ and IL-17+ cells, respectively. […] In a Th1/Th17 generation assay, pmY-P2X7R CD4+ T cells seemed to display increased differentiation capacity in comparison with pmY-mock CD4+ T cells, as assessed by T-bet and ROR-γ expression.

[7] = system: C57BL/6 mice transplanted with Bm12 left lung; assay: Allogeneic orthotopic left lung transplantation, Bm12 into C57BL/6; type: in vivo, mouse
Method: The effect of oATP treatment in a model of allogeneic orthotropic left lung transplantation (Bm12 into C57BL/6) was assessed. Graft rejection and tissue fibrosis occurs early after transplantation and it is complete by day 30. […] CT scan was also performed in untreated or oATP-treated mice. Radiological analysis confirmed the preserved alveolar space and thus the functional integrity of oATP-treated compared to untreated mice (FIG. 8). oATP treatment is a rescue therapy for lung rejection. In a complementary experiment, oATP was tested as a rescue therapy for lung rejection. Bm12 left lung was transplanted into C57BL/6 mice and oATP treatment was started at day 10 after transplantation (when graft infiltration and rejection are evident) and mice follow for 30 days.

[8] = system: mouse CD8 T cells; assay: Isolated CD8 T cells stimulated with anti-CD3, TNF-α, IFN-γ and granzyme B expression; type: cell-based; conditions: anti-CD3 10 μg/ml

Substance: periodate-oxidized ATP [oATP]
- long-term cardiac transplant survival (>100 days), share of recipients [1]: 80%
- percentage of Tregs ([2]; day 7): No differences
- percentage of Tregs ([2]; day 100): an increase
- percentages of CD4+ Teffs and CD8+ Teffs ([2]; days 7 and 100 vs untreated): reduced
- IFN-γ-producing cells after ovalbumin immunization (immunocompetence) ([2]; oATP-treated mice at day 100 vs naïve mice): no differences
- number of IL-4-producing cells (ELISPOT) ([2]; oATP-treated vs untreated, day 7): increased
- number of IFN-γ-producing cells (ELISPOT) ([2]; oATP-treated vs untreated, day 7 (and day 100)): Reduced; also recorded: fewer
- percentage of Th17 cells (CD4+IL17+) ([2]; vs untreated, days 7 and 100): similarly reduced; also recorded: fewer
- phosphorylation of JNK/SAPK1, p70/S6, or STAT5 [3]: unaffected
- activation-induced STAT3 phosphorylation [4]: reduced level; also recorded: prevented phosphorylation of STAT3; also recorded: significant inhibition
- phosphorylated STAT3 in CD4+ T cells [5]: reduced levels
- conversion of naïve Th0 cells into Th1 (IFN-γ+ cells) [6]: inhibited
- conversion of naïve Th0 cells into Th17 (IL-17+ cells) [6]: inhibited
- lung function (PawP, compliance) after rescue therapy ([7]; oATP started at day 10): Better functional preservation of lung compliance
- radiological and histological analysis after rescue therapy ([7]; oATP started at day 10, followed for 30 days): reversal of graft rejection and no signs of fibrosis; also recorded: preservation of alveolar space
- graft fibrosis, inflammation and alveolar spaces ([7]; treatment from transplantation): prevents graft fibrosis; also recorded: highly reduced inflammation and preserved alveolar spaces
- expression of TNF-α, IFN-γ and granzyme B [8]: reduction; also recorded: impaired activation
